Measurements as given in patent US7087595B2, “Antihistaminic spiro compounds” (Janssen Pharmaceutica, N.V., priority 1998, dated 2006).
Counter-ions that a name gives are not always drawn.

test system: Compound 48/80 induced Lethality; experiment: Protection of Rats from Compound 48/80 induced Lethality; assay type: in vivo; conditions: Rattus norvegicus, protection from Compound 48/80 induced lethality, read-out: ED50

Q: With `Cl.Cl.NC(=O)c1cnc2n1CCc1ccccc1C21CCNCC1` [Compound 17, 5,6-dihydrospiro[11H-imidazo[2,1-b][3]-benzazepine-11,4′-piperidine]-3-carboxamide dihydrochloride] as the molecule, how does the ED50 read?
A: The ED50 was 0.04 mg/kg.

Q: With `Clc1cnc2n1CCc1ccccc1C21CCNCC1.O=C(O)/C=C/C(=O)O` [Compound 20, 3-chloro-6,11-dihydrospiro[5H-imidazo[2,1-b][3]benzazepine-11,4′-piperidine] (E)-2-butenedioate (1:1)] as the molecule, how does the ED50 read?
A: The ED50 was 0.31 mg/kg.

Q: For `Cl.Cl.NC(=O)c1nc2n(c1C(N)=O)CCc1ccccc1C21CCNCC1.O` [Compound 53, 6,11-dihydrospiro[5H-imidazo[2,1-b][3]benzazepine-11,4′-piperidine]-2,3-dicarboxamide dihydrochloride monohydrate], which ED50 is on record?
A: The ED50 was 0.31 mg/kg.

Q: Which ED50 does the source give for `C1=Cn2ccnc2C2(CCNCC2)c2ccsc21` [Compound 56a, spiro[10H-imidazo[1,2-a]thieno[3,2-d]azepine-10,4′-piperidine]] here?
A: The ED50 was 2.5 mg/kg.

Q: With `CCOC(=O)C(CN1CCC2(CC1)c1ccccc1CCn1c(C(N)=O)cnc12)c1ccccc1` (stereo not drawn) [Compound 64, ethyl 3-(aminocarbonyl)-6,11-dihydro-α-phenylspiro[5H-imidazo-[2,1-b][3]benzazepine-11,4′-piperidine]-1′-propanoate monohydrochloride] as the molecule, how does the ED50 read?
A: Its ED50 is 0.31 mg/kg.

Q: With `CN1CCC2(CC1)c1ccccc1CCn1c(C(N)=O)cnc12.O` [Compound 80, 6,11-dihydro-1′-methylspiro[5H-imidazo[2,1-b][3]benzazepine-11,4′-piperidine]-3-carboxamide monohydrate] as the molecule, how does the ED50 read?
A: Its ED50 is 0.63 mg/kg.

same assay, conditions: protection from Compound 48/80 induced lethality

Q: “3-(aminocarbonyl)-6,11-dihydrospiro[5H-imidazo[2,1-b][3]-benzazepine-11,4′-piperidine]-1′-carboxylate [Compound 79]” was tested. Which “ED50” value did it give?
A: Its value is 0.04 mg/kg.

Q: Which “ED50” value does the source give for “5,6-dihydrospiro[11H-imidazo[2,1-b][3]benzazepine-11,4′-piperidine]-3-methanol (E)-2-butenedioic acid salt (2:1) [Compound 18a]” here?
A: Its value is 0.08 mg/kg.

Q: Which “ED50” value does the source give for `CN1CCC2(CC1)c1ccccc1CCn1ccnc12.O=S(=O)(O)NC1CCCCC1.O=S(=O)(O)NC1CCCCC1` [Compound 1, 6,11-dihydro-1′-methylspiro[5H-imidazo[2,1-b][3]benzazepine-11,4′-piperidine]cyclohexylsulfamate(1:2)] here?
A: The value was 2.5 mg/kg.

Q: For `CCCCN1CCC2(CC1)c1ccccc1CCn1ccnc12.CCCCN1CCC2(CC1)c1ccccc1CCn1ccnc12.Cl.Cl.Cl.Cl.O` [Compound 3, 1′-butyl-5,6-dihydrospiro[imidazo[2,1-b][3]-benzazepine-11-[11H],4′-piperidine]dihydrochloride.hemihydrate], which “ED50” value is on record?
A: The value was 2.5 mg/kg.

Q: For `COCc1cnc2n1CCc1ccccc1C21CCNCC1.O=C(O)/C=C/C(=O)O` [Compound 58, 6,11-dihydro-3-(methoxymethyl)spiro[5H-imidazo[2,1-b][3]benzazepine-11,4′-piperidine]. (E)-2-butenedioate (1:1)], which “ED50” value is on record?
A: The value was 2.5 mg/kg.

Q: How did the “ED50” value turn out when `NC(=O)c1cnc2n1CCc1ccccc1C21CCN(CCO)CC1` [Compound 62, 6,11-dihydro-1′-(2-hydroxyetehyl)spiro[5H-imidazo[2,1-b][3]-benzazepine-11,4′-piperidine]-3-carboxamide] was run?
A: The value was 0.63 mg/kg.
